Where two headings read alike, the source gives them in different places.
Tested on: NCI-H1975 (EGFR-L858R-T790M) cells
Test: Inhibitory activity on proliferation of NCI-H1975 (EGFR-L858R-T790M) cells (CTG, 72 h)
Assay type: cell-based
Conditions: Homo sapiens
Experimental: NCI-H1975 (EGFR-L858R-T790M) and A431 (EGFR-WT) cells were purchased from ATCC and cultured in an incubator at 37° C. with 5% CO2, and the culture mediums were RPMI1640+10% FBS and DMEM+10% FBS, respectively. On the first day, NCI-H1975 (EGFR-L858R-T790M) and A431 (EGFR-WT) cells in the logarithmic phase were collected, and viable cells were counted using an automatic cell analyzer (countstar). The cell suspensions were adjusted with the culture mediums and plated on a 96-well cell culture plate at 1000 cells/well for NCI-H1975 (EGFR-L858R-T790M) cells and at 3000 cells/well for A431 cells. The next day, the culture mediums were aspirated, and 90 μL of fresh culture mediums and 10 μL of the compounds at different concentrations were added to each well, wherein the final concentration of DMSO in each well was 0.1%. The plate was cultured in the incubator at 37° C. with 5% CO2 for 72 hours. After 72 hours of drug treatment, 50 μL of CTG solution (promega, G7572), which was already pre-melted and equilibrated to room temperature, was added to each well, and the mixtures were uniformly mixed for 2 min using a microplate shaker. The plate was placed at room temperature for 10 min, and then […] signal values were measured using a microplate reader (PHERAstar FSX).
Surviving cells % was calculated based on Vsample/Vvehicle control×100%, wherein Vsample was the readout of the drug-treated group, and Vvehicle control was the average value of the vehicle control group. Using the origin 9.2 software and nonlinear regression model, S-shaped dose-survival curves were plotted, and IC50 values were calculated.

[1] = read-out: IC50 (value in brackets)

Row | SMILES | IC50 (read-out: IC50 (class symbol)) [nM] | IC50 [1] [nM]
1 | COc1cc(N2CCN(Cc3cccc(NC4CCC(=O)NC4=O)c3)CC2)c(-c2cnn(C)c2)cc1Nc1ncc(Br)c(Nc2ccc(-c3ccccc3)cc2P(C)(C)=O)n1 (stereo not drawn) [Compound 74, 3-((3-((4-(4-((5-bromo-4-((3-(dimethylphosphoryl)-[1,1′-biphenyl]-4-yl)amino)pyrimidin-2-yl)amino)-5-methoxy-2-(1-methyl-1H-pyrazol-4-yl)phenyl)piperazin-1-yl)methyl)phenyl)amino)piperidine-2,6-dione] | 100 to 500 | 313
2 | COc1cc(N2CCC(CN3CCN(c4ccc(C(=O)NC5CCC(=O)NC5=O)nc4)CC3)CC2)c(-c2cnn(C)c2)cc1Nc1ncc(Br)c(Nc2ccc(-c3ccccc3)cc2P(C)(C)=O)n1 (stereo not drawn) [Compound 64, 5-(4-((1-(4-((5-bromo-4-((3-(dimethylphosphoryl)-[1,1′-biphenyl]-4-yl)amino)pyrimidin-2-yl)amino)-5-methoxy-2-(1-methyl-1H-pyrazol-4-yl)phenyl)piperidin-4-yl)methyl)piperazin-1-yl)-N-(2,6-dioxopiperidin-3-yl)picolinamide] | < 100 | 82
3 | COc1cc(N2CCC(CN3CCN(c4ccc(NC5CCC(=O)NC5=O)cc4F)CC3)CC2)c(-c2cnn(C)c2)cc1Nc1ncc(Cl)c(Nc2ccccc2P(C)(C)=O)n1 (stereo not drawn) [Compound 157, 3-((4-(4-((1-(4-((5-chloro-4-((2-(dimethylphosphoryl)phenyl)amino)pyrimidin-2-yl)amino)-5-methoxy-2-(1-methyl-1H-pyrazol-4-yl)phenyl)piperidin-4-yl)methyl)piperazin-1-yl)-3-fluorophenyl)amino)piperidine-2,6-dione] | < 100 | 29
4 | COc1cc(N2CCN(CC3CCN(c4ccc(C(=O)NC5CCC(=O)NC5=O)nc4)CC3)CC2)c(-c2cnn(C)c2)cc1Nc1ncc(Cl)c(Nc2ccc(-c3ccccc3)cc2P(C)(C)=O)n1 (stereo not drawn) [Compound 124, 5-(4-((4-(4-((5-chloro-4-((3-(dimethylphosphoryl)-[1,1′-biphenyl]-4-yl)amino)pyrimidin-2-yl)amino)-5-methoxy-2-(1-methyl-1H-pyrazol-4-yl)phenyl)piperazin-1-yl)methyl)piperidin-1-yl)-N-(2,6-dioxopiperidin-3-yl)picolinamide] | < 100 | 71
5 | COc1cc(N2CCC(CN3CCN(c4ccc(C5CCC(=O)NC5=O)c(F)c4)CC3)CC2)c(-c2cnn(C)c2)cc1Nc1ncc(Cl)c(Nc2ccc(C3CC3)cc2P(C)(C)=O)n1 (stereo not drawn) [Compound 153, 3-(4-(4-((1-(4-((5-chloro-4-((4-cyclopropyl-2-(dimethylphosphoryl)phenyl)amino)pyrimidin-2-yl)amino)-5-methoxy-2-(1-methyl-1H-pyrazol-4-yl)phenyl)piperidin-4-yl)methyl)piperazin-1-yl)-2-fluorophenyl)piperidine-2,6-dione] | < 100 | 73
6 | COc1cc(N2CCC3(CCN(CC4CCN(c5ccc6c(c5)C(=O)N(C5CCC(=O)NC5=O)C6=O)CC4)CC3)CC2)c(C2CC2)cc1Nc1ncc(Br)c(Nc2ccc3nccnc3c2P(C)(C)=O)n1 (stereo not drawn) [Compound 3, 5-(4-((9-(4-((5-bromo-4-((5-(dimethylphosphoryl)quinoxalin-6-yl)amino)pyrimidin-2-yl)amino)-2-cyclopropyl-5-methoxyphenyl)-3,9-diazaspiro[5.5]undecan-3-yl)methyl)piperidin-1-yl)-2-(2,6-dioxopiperidin-3-yl)isoindoline-1,3-dione] | < 100 | 75

More lines, now with the values ahead:

Row | IC50 (read-out: IC50 (class symbol)) [nM] | IC50 [1] [nM] | SMILES
7 | < 100 | 42 | COc1cc(N2CCC(N3CCC(CN4CCN(c5ccc6c(c5)C(=O)N(C5CCC(=O)NC5=O)C6=O)CC4)CC3)CC2)c(-c2cnn(C)c2)cc1Nc1ncc(Br)c(Nc2ccc3nccnc3c2P(C)(C)=O)n1 (stereo not drawn) [Trifluoroacetate of compound 19, 5-(4-((1′-(4-((5-bromo-4-((5-(dimethylphosphoryl)quinoxalin-6-yl)amino)pyrimidin-2-yl)amino)-5-methoxy-2-(1-methyl-1H-pyrazol-4-yl)phenyl)-[1,4′-bipiperidin]-4-yl)methyl)piperazin-1-yl)-2-(2,6-dioxopiperidin-3-yl)isoindoline-1,3-dione]
8 | < 100 | 33 | COc1cc(N2CCC(N3CCC4(CCCN(c5cc6c(cc5F)C(=O)N(C5CCC(=O)NC5=O)C6=O)C4)CC3)CC2)c(-c2cnn(C)c2)cc1Nc1ncc(Cl)c(Nc2ccc3nccnc3c2P(C)(C)=O)n1 (stereo not drawn) [Compound 28, 5-(9-(1-(4-((5-chloro-4-((5-(dimethylphosphoryl)quinoxalin-6-yl)amino)pyrimidin-2-yl)amino)-5-methoxy-2-(1-methyl-1H-pyrazol-4-yl)phenyl)piperidin-4-yl)-2,9-diazaspiro[5.5]undecan-2-yl)-2-(2,6-dioxopiperidin-3-yl)-6-fluoroisoindoline-1,3-dione]
9 | < 100 | 66 | COc1cc(N2CCC(N3CCC(N4CCC5(CCCN(c6ccc7c(c6)C(=O)N(C6CCC(=O)NC6=O)C7=O)C5)CC4)CC3)CC2)c(-c2cnn(C)c2)cc1Nc1ncc(Cl)c(Nc2ccc3nccnc3c2P(C)(C)=O)n1 (stereo not drawn) [Compound 15, 5-(9-(1′-(4-((5-chloro-4-((5-(dimethylphosphoryl)quinoxalin-6-yl)amino)pyrimidin-2-yl)amino)-5-methoxy-2-(1-methyl-1H-pyrazol-4-yl)phenyl)-[1,4′-bipiperidin]-4-yl)-2,9-diazaspiro[5.5]undecan-2-yl)-2-(2,6-dioxopiperidin-3-yl)isoindoline-1,3-dione]
10 | 100 to 500 | 214 | COc1cc(N2CCC(CN3CCN(c4ccc(N5CCC(=O)NC5=O)cc4)CC3)CC2)c(-c2cnn(C)c2)cc1Nc1ncc(Cl)c(Nc2ccc(C3CC3)cc2P(C)(C)=O)n1 [Compound 131, 1-(4-(4-((1-(4-((5-chloro-4-((4-cyclopropyl-2-(dimethylphosphoryl)phenyl)amino)pyrimidin-2-yl)amino)-5-methoxy-2-(1-methyl-1H-pyrazol-4-yl)phenyl)piperidin-4-yl)methyl)piperazin-1-yl)phenyl)dihydropyrimidine-2,4(1H,3H)-dione]
11 | < 100 | 34 | COc1cc(N2CCC(CN3CCC4(CC3)CCN(c3ccc(C(=O)NC5CCC(=O)NC5=O)nc3)CC4)CC2)c(-c2cnn(C)c2)cc1Nc1ncc(Br)c(Nc2ccc(-c3ccccc3)cc2P(C)(C)=O)n1 (stereo not drawn) [Compound 69, 5-(9-((1-(4-((5-bromo-4-((3-(dimethylphosphoryl)-[1,1′-biphenyl]-4-yl)amino)pyrimidin-2-yl)amino)-5-methoxy-2-(1-methyl-1H-pyrazol-4-yl)phenyl)piperidin-4-yl)methyl)-3,9-diazaspiro[5.5]undecan-3-yl)-N-(2,6-dioxopiperidin-3-yl)picolinamide]
12 | < 100 | 73 | COc1cc(N2CCC(N3CCC(CN4CCC5(CCCN(c6ccc7c(c6)C(=O)N(C6CCC(=O)NC6=O)C7=O)C5)CC4)CC3)CC2)c(-c2cnn(C)c2)cc1Nc1ncc(Cl)c(Nc2ccc3nccnc3c2P(C)(C)=O)n1 (stereo not drawn) [Compound 16, 5-(9-((1′-(4-((5-chloro-4-((5-(dimethylphosphoryl)quinoxalin-6-yl)amino)pyrimidin-2-yl)amino)-5-methoxy-2-(1-methyl-1H-pyrazol-4-yl)phenyl)-[1,4′-bipiperidin]-4-yl)methyl)-2,9-diazaspiro[5.5]undecan-2-yl)-2-(2,6-dioxopiperidin-3-yl)isoindoline-1,3-dione]
13 | < 100 | 46 | COc1cc(N2CCC(CN3CCN(c4ccc(C5CCC(=O)NC5=O)c(F)c4)CC3)CC2)c(-c2cnn(C)c2)cc1Nc1ncc(Cl)c(Nc2ccccc2P(C)(C)=O)n1 (stereo not drawn) [Compound 154, 3-(4-(4-((1-(4-((5-chloro-4-((2-(dimethylphosphoryl)phenyl)amino)pyrimidin-2-yl)amino)-5-methoxy-2-(1-methyl-1H-pyrazol-4-yl)phenyl)piperidin-4-yl)methyl)piperazin-1-yl)-2-fluorophenyl)piperidine-2,6-dione]
14 | < 100 | 35 | COc1cc(N2CCN(C3CN(c4ccc5c(c4)C(=O)N(C4CCC(=O)NC4=O)C5=O)C3)CC2)c(-c2cnn(C)c2)cc1Nc1ncc(Br)c(Nc2ccccc2P(C)(C)=O)n1 (stereo not drawn) [Compound 151, 5-(3-(4-(4-((5-bromo-4-((2-(dimethylphosphoryl)phenyl)amino)pyrimidin-2-yl)amino)-5-methoxy-2-(1-methyl-1H-pyrazol-4-yl)phenyl)piperazin-1-yl)azetidin-1-yl)-2-(2,6-dioxopiperidin-3-yl)isoindoline-1,3-dione]
15 | 100 to 500 | 125 | COc1cc(N2CCC3(CCN(Cc4cccc(NC5CCC(=O)NC5=O)c4)CC3)CC2)c(-c2cnn(C)c2)cc1Nc1ncc(Br)c(Nc2ccc(-c3ccccc3)cc2P(C)(C)=O)n1 (stereo not drawn) [Compound 129, 3-((3-((9-(4-((5-bromo-4-((3-(dimethylphosphoryl)-[1,1′-biphenyl]-4-yl)amino)pyrimidin-2-yl)amino)-5-methoxy-2-(1-methyl-1H-pyrazol-4-yl)phenyl)-3,9-diazaspiro[5.5]undecan-3-yl)methyl)phenyl)amino)piperidine-2,6-dione]
